In patent publication US8318708B2, “Use of vitamin D receptor agonists, ligands, and precursors to treat pancreatic fibrosis” (Salk Institute for Biological Studies, priority 2007, dated 2012):

Columns and labels:
VDR [1] = target: T1, VDR (Rattus norvegicus, UniProt P13053); test: Western blot of VDR in Kupffer cells (KCs); format: cell-based; set-up: endogenous in cells; host or cells: primary rat hepatic stellate cells, sinusoidal endothelial cells, Kupffer cells and hepatocytes (Sprague-Dawley rats); conditions: FIG. 10B
T1 sequence (P13053 1-423): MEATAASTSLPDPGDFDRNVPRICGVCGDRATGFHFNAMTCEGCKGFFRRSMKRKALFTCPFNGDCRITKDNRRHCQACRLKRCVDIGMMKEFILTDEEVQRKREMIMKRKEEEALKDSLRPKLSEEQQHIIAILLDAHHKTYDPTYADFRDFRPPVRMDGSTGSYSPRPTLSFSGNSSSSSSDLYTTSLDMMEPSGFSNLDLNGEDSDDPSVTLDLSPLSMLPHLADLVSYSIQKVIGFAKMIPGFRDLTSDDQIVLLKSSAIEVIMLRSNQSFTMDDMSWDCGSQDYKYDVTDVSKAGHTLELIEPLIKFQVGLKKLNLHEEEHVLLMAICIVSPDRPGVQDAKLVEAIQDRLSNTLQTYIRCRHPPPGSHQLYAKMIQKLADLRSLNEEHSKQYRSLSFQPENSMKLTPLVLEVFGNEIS
Text: (§1) Hepatic sinusoidal endothelial cells (SECs) and Kupffer cells (KCs) were elutriated from rat liver and maintained in cell culture.

VDR [2] = target: T1, VDR; test: QPCR of VDR, Cyp24a1 and Hnf4α mRNA in primary rat hepatocytes; format: cell-based; set-up: endogenous in cells; host or cells: primary rat hepatic stellate cells, sinusoidal endothelial cells, Kupffer cells and hepatocytes (Sprague-Dawley rats); conditions: 24 hours, TGF-β1 2 ng/mL, calcitriol 10 nM
HSCs = conditions: rat HSCs 24 h; LPS 15 ng/ml, TGFβ 2 ng/ml, calcitriol 10 nM; control = 1
Procedure: For Illumina microarray analysis, Illumina TotalPrep RNA Amplification Kit (Ambion; Catalog # IL1791) was used with the manufacturer's instructions for the RNA amplification. […] Essentially, biotinylated cRNA was prepared according to the manufacturer's directions starting with 200 ng total RNA. Hybridization to the Illumina Sentrix RatRef-12 v.1 and Mouse RefSeq version 2 Expression BeadChips (Illumina, Inc., San Diego, Calif.), washing and scanning were performed according to the Illumina BeadStation 500× manual (revision C). […] RNA is isolated using Trizol and the quality/integrity of the total RNA verified using a Bioanalyzer (Agilent).
Microarray experiments were repeated two times with RNA from two experiments where HSCs were isolated from two different rats and for each condition triplicate samples were used. The “Detection Score” was used to determine expression using the Illumina platform. It is a statistical measure in the BeadStudio software (version 1.5.0.34), which is computed based on the Z-value of a gene relative to the Z-value of the negative controls. The Illumina data were adjusted (“normalized”) using a cubic spline function. […] The expression difference score, DiffScore, takes into account background noise and sample variability. […] Illumina expression arrays utilize gene-specific 50-mer oligonucleotide probes with an average of 30 replicates of each probe bead per individual array.
Two different HSCs from different rats were used for the lumina microarray analysis. […] Values are expressed as fold change relative to control cells treated with vehicle alone.

VDR [3] = target: T2, VDR (Homo sapiens, UniProt P11473); test: Real-time qPCR of CYP24A1 in human LX-2 cell line; format: cell-based; conditions: LX-2 cells overnight; 1,α25(OH)2D3 1 nM, TGF β1 100 pM
T2 construct: endogenous in cells; host or cells: human LX-2 hepatic stellate cell line
T2 sequence (P11473 1-427): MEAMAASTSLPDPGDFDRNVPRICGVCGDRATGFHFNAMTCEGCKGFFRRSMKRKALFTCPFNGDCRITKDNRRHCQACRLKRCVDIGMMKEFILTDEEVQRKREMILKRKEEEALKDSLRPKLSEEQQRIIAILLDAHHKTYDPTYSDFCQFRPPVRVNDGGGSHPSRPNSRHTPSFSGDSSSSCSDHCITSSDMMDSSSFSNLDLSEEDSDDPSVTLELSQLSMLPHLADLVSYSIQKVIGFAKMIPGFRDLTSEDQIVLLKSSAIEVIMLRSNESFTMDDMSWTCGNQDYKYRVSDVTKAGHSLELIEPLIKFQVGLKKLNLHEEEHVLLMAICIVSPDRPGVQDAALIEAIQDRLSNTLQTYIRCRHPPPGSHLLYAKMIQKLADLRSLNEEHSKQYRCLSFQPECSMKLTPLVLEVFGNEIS
Procedure: Human LX-2 cells were grown to 50% confluence in DMEM with 10% FBS in 6-Well plates.
For qRT-PCR, 500 ng of deoxyribonuclease-treated total RNA was reverse transcribed into cDNA using SuperScript™ III reverse transcriptase essentially as described by the manufacturer (Invitrogen). Quantification of gene of interest mRNA was performed using a Rotor-Gene, RG 6000 (Corbett Research). […] Human B2M primers were from Applied Biosystems.
TGFβ signaling is the key mediator in hepatic fibrogenesis, triggering the transition of HSCs into myofibroblast-like cells and thereby stimulating synthesis of ECM proteins. Thus, TGFβ1 is produced locally in the organ as part of the fibrotic process It has been previously reported that TGFB signaling can influence the activity of VDR-dependent genes, as depicted in (FIG. 8A). In this model, TGFβ activation results in SMAD3 phosphorylation, inducing its translocation into the nucleus where it associates with the ligand bound VDR complex. Phosphorylated SMAD3 acts as a co-activator in the VDR/vitaminD3 complex enhancing the transcriptional potential of VDR on target genes. To understand the interplay between TGFB and VDR signaling pathways, the effects of TGFβ on the well characterized VDR gene target Cyp24α1 were examined.

VDR [4] = target: T1, VDR; test: Western blot of VDR in sinusoidal endothelial cells (SECs); format: cell-based; set-up: endogenous in cells; host or cells: primary rat hepatic stellate cells, sinusoidal endothelial cells, Kupffer cells and hepatocytes (Sprague-Dawley rats); conditions: FIG. 10A
Text: as §1

VDR [5] = test: Western blot of VDR in hepatocytes treated with TGF-β1; format: cell-based, rat; human; conditions: TGF-β1 2 ng/mL, 24 hours, FIG. 14
Procedure: Primary rat hepatocytes were isolated from Sprague-Dawley rats by collagenase in situ perfusion and plated on collagen in Williams E medium. The immortalized human hepatocyte (IHH) cell line was cultured in DMEM/F12+GlutaMax with insulin and dexamethasone. Primary rat hepatocytes or immortalized human hepatocytes were cultured for two days, then subsequently treated with TGF-β1 (2 ng/mL human, recombinant expressed in CHO cells from Sigma-Aldrich, # T7039) for 24 hours and compared to untreated controls. Protein was prepared from harvested cells and western blotting for VDR was accomplished using a specific anti-VDR antibody (anti-human VDR antibody from R&D systems CAT # PP-H4537-00 and rat anti-VDR monoclonal antibody from Chemocon International CAT # MAB1360). Recombinant human VDR protein was included as a positive control.

In the case of “TGF-β1: transforming growth factor beta 1; human recombinant from Sigma-Aldrich T7039”, the VDR protein expression (VDR [1]) is reported as “induced”, the “Cyp24a1 mRNA expression” value (VDR [2]) is reported as “no effect” and the HNF4α expression (VDR [2]) is reported as “some increase”. The “VDR mRNA expression” value (VDR [2]) was “capable of inducing”, the Ccl5 gene expression (HSCs) was 0.957 fold change and the Ccl12 gene expression (HSCs) was 1.167 fold change. It also gave a Ccl20 gene expression (HSCs) of 0.999 fold change, a Col1a1 gene expression (HSCs) of 3.014 fold change and a Col1a2 gene expression (HSCs) of 2.256 fold change. It also gave a Col3a1 gene expression (HSCs) of 1.878 fold change, a Col5a1 gene expression (HSCs) of 2.322 fold change and a Col5a2 gene expression (HSCs) of 1.583 fold change. It also gave a Col6a3 gene expression (HSCs) of 1.611 fold change, a Col8a1 gene expression (HSCs) of 2.240 fold change and a Csf2 gene expression (HSCs) of 0.803 fold change. The Ctgf gene expression (HSCs) was 1.919 fold change, the Cx3cl1 gene expression (HSCs) was 0.864 fold change and the Cxcl5 gene expression (HSCs) was 0.971 fold change. For the same substance, the Cxcl9 gene expression (HSCs) was 0.875 fold change, the Cxcl11 gene expression (HSCs) was 1.05 fold change and the Icam1 gene expression (HSCs) was 1.371 fold change. The Il1a gene expression (HSCs) was 0.517 fold change, the Il1b gene expression (HSCs) was 0.322 fold change and the Il6 gene expression (HSCs) was 0.791 fold change. The Il10 gene expression (HSCs) was 0.837 fold change, the Mmp7 gene expression (HSCs) was 1.692 fold change and the Mmp10 gene expression (HSCs) was 1.856 fold change. The Mmp13 gene expression (HSCs) was 1.342 fold change, the Smad2 gene expression (HSCs) was 1.381 fold change and the Smad3 gene expression (HSCs) was 1.116 fold change. It also gave a Smad4 gene expression (HSCs) of 1.325 fold change, a Tgfb1 gene expression (HSCs) of 1.502 fold change and a Tgfbr1 gene expression (HSCs) of 1.317 fold change. For the same substance, the Timp1 gene expression (HSCs) was 1.026 fold change, the Timp2 gene expression (HSCs) was 1.823 fold change and the Tlr2 gene expression (HSCs) was 1.092 fold change. For the same substance, the Tlr4 gene expression (HSCs) was 1.349 fold change, the Tnf gene expression (HSCs) was 1.078 fold change and the Tnfrsf5 gene expression (HSCs) was 1.339 fold change. The Tnfrsf14 gene expression (HSCs) was 1.373 fold change, the Vcam1 gene expression (HSCs) was 1.482 fold change and the “CYP24a1 gene expression (QPCR, normalized to 36B4)” value (VDR [3]) was “no effect”. For the same substance, the VDR protein expression (VDR [4]) was “induced” and the “Increase in VDR expression (western blot)” value (VDR [5]) was “at least 5 fold”.
